Data from ChEMBL document CHEMBL5244275, “Geminal Diheteroatomic Motifs: Some Applications of Acetals, Ketals, and Their Sulfur and Nitrogen Homologues in Medicinal Chemistry and Drug Design” (J Med Chem, 2021).

Experiments:
[1] = Stability of the compound at pH 2 assessed as half-life; assay type: physicochemical; conditions: buffer
[2] = Half-life in iv dosed rat plasma; assay type: ADME, organism-based
[3] = Stability of the compound in 0.01 N HCL at pH 2.0 assessed as half-life; assay type: physicochemical
Plasmodium falciparum = assay: Antiplasmodial activity against Plasmodium falciparum W2 assessed as inhibition of parasite growth; assay type: functional, organism-based
[4] = Half-life in po dosed rat; assay type: ADME, organism-based; conditions: in vivo
[5] = Oral bioavailability in mouse; assay type: ADME, organism-based; conditions: in vivo
[6] = target: Sterol O-acyltransferase 1 (Rattus norvegicus, UniProt O70536); assay: Inhibition of ACAT in rat
Chain of Sterol O-acyltransferase 1 (O70536 whole entry): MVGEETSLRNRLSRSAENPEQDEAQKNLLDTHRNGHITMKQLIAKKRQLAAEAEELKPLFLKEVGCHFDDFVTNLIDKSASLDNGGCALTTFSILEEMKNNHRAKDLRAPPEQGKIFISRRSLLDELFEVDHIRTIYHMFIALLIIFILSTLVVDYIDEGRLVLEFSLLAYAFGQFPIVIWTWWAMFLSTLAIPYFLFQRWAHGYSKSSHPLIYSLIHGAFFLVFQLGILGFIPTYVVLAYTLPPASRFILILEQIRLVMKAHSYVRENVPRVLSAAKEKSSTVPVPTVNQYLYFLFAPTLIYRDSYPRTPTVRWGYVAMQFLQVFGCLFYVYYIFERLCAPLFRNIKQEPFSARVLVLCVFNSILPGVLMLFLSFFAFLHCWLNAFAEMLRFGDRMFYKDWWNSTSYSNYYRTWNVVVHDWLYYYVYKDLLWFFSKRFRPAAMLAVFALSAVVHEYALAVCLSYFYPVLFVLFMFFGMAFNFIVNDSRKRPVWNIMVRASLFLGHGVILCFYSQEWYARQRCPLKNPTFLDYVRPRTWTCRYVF

[7] = Oral bioavailability in rat; assay type: ADME, organism-based; conditions: in vivo
[8] = target: Hepatitis C virus serine protease, NS3/NS4A (Hepatitis C virus, UniProt A3EZI9+D2K2A8); assay: Inhibition of Hepatitis C virus NS4A-NS3 protease by continuous assay; assay type: protein-complex assay, Hepacivirus hominis
Chain of Hepatitis C virus serine protease, NS3/NS4A (D2K2A8 whole entry): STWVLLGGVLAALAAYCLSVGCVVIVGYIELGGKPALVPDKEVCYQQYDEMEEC
Chain of Hepatitis C virus serine protease, NS3/NS4A (A3EZI9 whole entry): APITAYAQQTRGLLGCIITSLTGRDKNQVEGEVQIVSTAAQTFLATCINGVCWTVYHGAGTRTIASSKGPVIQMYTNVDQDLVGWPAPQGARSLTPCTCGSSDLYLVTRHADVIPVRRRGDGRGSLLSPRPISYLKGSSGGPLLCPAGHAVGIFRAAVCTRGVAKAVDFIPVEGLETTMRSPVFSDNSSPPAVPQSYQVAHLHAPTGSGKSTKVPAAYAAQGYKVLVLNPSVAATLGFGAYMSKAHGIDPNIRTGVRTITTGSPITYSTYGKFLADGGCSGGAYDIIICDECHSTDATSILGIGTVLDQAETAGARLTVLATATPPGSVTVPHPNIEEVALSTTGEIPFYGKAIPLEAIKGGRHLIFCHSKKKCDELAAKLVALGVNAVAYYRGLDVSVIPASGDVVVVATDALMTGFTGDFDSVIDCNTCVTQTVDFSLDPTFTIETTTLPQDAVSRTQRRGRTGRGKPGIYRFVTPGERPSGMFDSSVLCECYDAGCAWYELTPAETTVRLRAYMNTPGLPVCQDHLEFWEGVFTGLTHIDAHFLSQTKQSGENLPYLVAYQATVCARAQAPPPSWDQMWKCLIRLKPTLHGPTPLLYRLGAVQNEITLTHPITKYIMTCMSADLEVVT

[9] = Antiplasmodial activity against Plasmodium berghei NK 173 infected in ICR (CD-1) mouse assessed as inhibition of parasite growth administered intraperitoneally for four days; conditions: NK 173, 96 h
MAP kinase p38 = MAP kinase p38 (Homo sapiens, UniProt O15264+Q15759+Q16539+P53778); assay: Inhibition of p38-MAPK (unknown origin); assay type: protein assay
Mus musculus [10] = assay: Antiinflammatory activity in LPS-induced Balb/c mouse model assessed as reduction in TNF-alpha release administered orally for 30 mins followed by LPS-stimulation and measured after 90 mins by ELISA analysis; assay type: functional; conditions: 2 h, route po, time 120 min
[11] = target: Sodium-dependent serotonin transporter (Homo sapiens, UniProt P31645); assay: Inhibition of SERT (unknown origin)
Chain of Sodium-dependent serotonin transporter (P31645 whole entry): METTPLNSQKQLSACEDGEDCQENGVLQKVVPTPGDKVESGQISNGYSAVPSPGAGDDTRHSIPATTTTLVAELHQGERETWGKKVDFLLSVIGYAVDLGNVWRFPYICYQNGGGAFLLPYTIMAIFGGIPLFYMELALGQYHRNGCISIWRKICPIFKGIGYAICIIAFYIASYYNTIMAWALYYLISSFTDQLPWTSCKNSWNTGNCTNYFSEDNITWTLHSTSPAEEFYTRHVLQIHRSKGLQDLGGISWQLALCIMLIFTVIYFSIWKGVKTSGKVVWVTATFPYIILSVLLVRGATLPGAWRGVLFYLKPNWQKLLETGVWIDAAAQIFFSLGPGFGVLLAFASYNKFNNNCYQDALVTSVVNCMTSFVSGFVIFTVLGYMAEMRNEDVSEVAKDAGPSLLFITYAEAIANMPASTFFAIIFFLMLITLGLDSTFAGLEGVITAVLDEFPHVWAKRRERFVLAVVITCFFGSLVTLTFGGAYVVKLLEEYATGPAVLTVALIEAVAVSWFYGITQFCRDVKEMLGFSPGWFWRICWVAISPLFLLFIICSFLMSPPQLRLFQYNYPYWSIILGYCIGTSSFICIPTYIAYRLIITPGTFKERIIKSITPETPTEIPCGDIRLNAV

[12] = target: Sodium-dependent dopamine transporter (Homo sapiens, UniProt Q01959); assay: Inhibition of dopamine transporter (unknown origin)
Chain of Sodium-dependent dopamine transporter (Q01959 whole entry): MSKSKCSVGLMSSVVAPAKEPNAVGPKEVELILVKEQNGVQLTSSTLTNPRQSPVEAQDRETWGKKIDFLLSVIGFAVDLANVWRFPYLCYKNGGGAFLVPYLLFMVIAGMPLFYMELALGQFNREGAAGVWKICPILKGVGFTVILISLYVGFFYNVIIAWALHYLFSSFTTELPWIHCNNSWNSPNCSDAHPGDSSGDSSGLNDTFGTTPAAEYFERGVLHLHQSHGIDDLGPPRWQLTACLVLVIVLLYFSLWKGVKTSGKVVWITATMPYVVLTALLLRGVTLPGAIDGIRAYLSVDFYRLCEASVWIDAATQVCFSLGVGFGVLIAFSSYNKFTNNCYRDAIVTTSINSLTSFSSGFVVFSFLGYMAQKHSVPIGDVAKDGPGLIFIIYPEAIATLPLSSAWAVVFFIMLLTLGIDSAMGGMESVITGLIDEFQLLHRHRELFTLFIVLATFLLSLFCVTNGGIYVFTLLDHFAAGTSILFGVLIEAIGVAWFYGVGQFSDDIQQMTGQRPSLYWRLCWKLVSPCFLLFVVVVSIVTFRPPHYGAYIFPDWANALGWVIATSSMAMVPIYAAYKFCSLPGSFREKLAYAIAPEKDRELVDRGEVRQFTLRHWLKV

Mus musculus [13] = species on record: Mus musculus; assay: Analgesic activity in mouse assessed as protection against phenylbenzoquinone-induced writhing; assay type: functional
[14] = Inhibition of Calcium channel (unknown origin); parameters: species or system Homo sapiens
[15] = Dissociation constant, pKa of the compound; assay type: physicochemical
Cavia porcellus = assay: Antiinflammatory activity in po dosed substance P-induced guinea pig model of dermal inflammation; assay type: functional; conditions: read-out: ID50 (the source's name)
Substance-P receptor = Substance-P receptor (Homo sapiens, UniProt P25103); assay: Displacement of [125I]-labeled SP from human NK-1 receptor expressed in CHO cells at 1 uM relative to control; assay type: cell-based; conditions: filed as antagonist
Chain of Substance-P receptor (P25103 whole entry): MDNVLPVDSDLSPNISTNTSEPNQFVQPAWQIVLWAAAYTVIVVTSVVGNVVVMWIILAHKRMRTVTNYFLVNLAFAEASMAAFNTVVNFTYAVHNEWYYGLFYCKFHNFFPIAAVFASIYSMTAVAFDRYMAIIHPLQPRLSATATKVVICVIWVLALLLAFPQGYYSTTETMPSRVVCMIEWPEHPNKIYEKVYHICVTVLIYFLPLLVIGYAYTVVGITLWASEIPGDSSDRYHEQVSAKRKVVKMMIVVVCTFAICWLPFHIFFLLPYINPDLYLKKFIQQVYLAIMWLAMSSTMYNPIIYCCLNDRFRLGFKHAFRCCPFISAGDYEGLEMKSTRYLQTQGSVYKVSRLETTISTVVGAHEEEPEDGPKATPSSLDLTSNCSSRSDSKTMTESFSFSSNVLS

[16] = Antiplatelet activity in human platelet rich plasma assessed as platelet aggregation; assay type: functional, cell-free
[17] = Stability of the compound at pH 7.4 aqueous phosphate buffer assessed as half-life; assay type: physicochemical
[18] = Drug concentration in rat plasma at 10 mg/kg, po measured after 90 mins; assay type: ADME, organism-based

C[C@H]1[C@@H](O)O[C@@H]2O[C@@]3(C)CC[C@H]4[C@H](C)CC[C@@H]1[C@@]24OO3 [ARTENIMOL]
half-life [1]: 17 h
half-life [2]: 0.383 h
half-life [3]: 17 h
IC50 (Plasmodium falciparum): 0.00045 µM
half-life [4]: 0.5 h
bioavailability [5]: 1.4%

Cc1cc(C)n(CCCC[C@H]2CO[C@@H](c3nc(-c4ccccc4)c(-c4ccccc4)[nH]3)OC2)n1
IC50 [6]: 0.075 µM

CC(C)(N)CNC(=O)CC1CCC2(CC1)OOC1(O2)C2CC3CC(C2)CC1C3 (stereo unspecified)
bioavailability [7]: 35%
half-life [4]: 1 h

CCC[C@H](NC(=O)[C@@H]1[C@H]2O[C@H]3CCCOc4cccc(c4)CC(=O)N[C@@H](C4CCCCC4)CN1C[C@@H]2O3)C(=O)C(=O)NCC(=O)N[C@H](C(=O)O)c1ccccc1
Ki [8]: 0.038 µM

CO[C@@]1(C(F)(F)F)O[C@@H]2O[C@@]3(C)CC[C@H]4[C@H](C)CC[C@@H]([C@H]1C)[C@@]24OO3
half-life [1]: 660 h
ED50 [9]: 3.4 µmol/kg

C[C@@H]1CC[C@H]2[C@@H](C)[C@](O)(C(F)(F)F)O[C@@H]3O[C@@]4(C)CC[C@@H]1[C@]32OO4
half-life [1]: 760 h
half-life [2]: 1.43 h
IC50 (Plasmodium falciparum): 0.0026 µM
bioavailability [5]: 28%

C[C@]1(NC(=O)N2CCOCC2)CO[C@H](c2nc(-c3ccncc3)c(-c3ccc(F)cc3)[nH]2)OC1
bioavailability [7]: 50%
IC50 (MAP kinase p38): 0.05 µM
ED50 (Mus musculus [10]): < 10 mg/kg

COC(=O)[C@H]1[C@@H](c2ccc(Cl)c(Cl)c2)C[C@@H]2CC[C@H]1N2C
IC50 [11]: 0.002 µM
IC50 [12]: 0.0011 µM

c1ccc([C@@]23OC[C@@H](CCn4c2nc2ccccc24)O3)cc1
ED50 (Mus musculus [13]): 100 mg/kg

O=c1[nH]nc(CN2CCC[C@H](OCc3cc(C(F)(F)F)cc(C(F)(F)F)c3)[C@@H]2c2ccccc2)[nH]1
IC50 [14]: 13 µM
pKa [15]: 5.3
ED50 (Cavia porcellus): 0.037 mg/kg

Fc1ccc([C@@H]2NCCO[C@]23CC[C@@H](c2ccccc2C(F)(F)F)CO3)cc1
Activity (Substance-P receptor): 47%

O=c1[nH]nc(CN2CCO[C@H](OCc3cc(C(F)(F)F)cc(C(F)(F)F)c3)[C@@H]2c2ccccc2)[nH]1
IC50 [14]: 12 µM
pKa [15]: < 3
ED50 (Cavia porcellus): 0.009 mg/kg

c1ccc(-c2nc(C3OCCCO3)[nH]c2-c2ccccc2)cc1
IC50 [6]: 0.11 µM

CCCCC[C@H](O)/C=C/[C@H]1O[C@@H]2O[C@H]([C@@H]1C/C=C\CCCC(=O)O)C2(F)F
EC50 [16]: 0.036 µM
half-life [17]: 322 days

c1ccc(-c2nc([C@H]3OC[C@@H](CCCCN4CCSCC4)CO3)[nH]c2-c2ccccc2)cc1
concentration at 1.5 h [18]: 2.2 µM

COC(=O)[C@H]1[C@@H](c2ccc(Cl)c(Cl)c2)C[C@@H]2CC[C@H]1O2
IC50 [11]: 0.00467 µM
IC50 [12]: 0.00327 µM

C[C@]1(NC(=O)c2ccccc2)CO[C@H](c2nc(-c3ccncc3)c(-c3ccc(F)cc3)[nH]2)OC1
bioavailability [7]: 64%
IC50 (MAP kinase p38): 0.044 µM
ED50 (Mus musculus [10]): 10 mg/kg

Cc1cc(C)n(CCC[C@H]2CO[C@@H](c3nc(-c4ccccc4)c(-c4ccccc4)[nH]3)OC2)n1
concentration at 1.5 h [18]: 1.3 µM

CCC[C@H](NC(=O)[C@@H]1[C@H]2O[C@H]3CCCOc4cccc(c4)CC(=O)N[C@@H](C4CCCCC4)CN1C[C@@H]2O3)C(=O)C(=O)NCC(=O)N[C@H](C(=O)OC(C)(C)C)c1ccccc1
Ki [8]: 0.038 µM

Fc1ccc([C@@H]2NCCO[C@@]23CC[C@H](c2ccccc2C(F)(F)F)CO3)cc1
Activity (Substance-P receptor): 44%
